pIC50: −log10 of the molar value.
Key:
αvβ1 = molecular target: T1, αvβ1 (UniProt G3HZ55+P06756); experiment: αvβ1 cell adhesion inhibition test (αv-transfected CHO cells on human fibronectin); assay type: cell-based; conditions: human fibronectin coating, 1 mM MnCl2, 1 hour, read-out: IC50 (rate of inhibition of cell adhesion, αvβ1)
T1 construct: expressed in transfected cells; host or cells: CHO cells deficient in α5 gene, transfected with αv gene
Protocol: Test Example 1 was performed by partially modifying the method of Reed et al. (Sci Transl Med., 7 (288), 288ra79, 2015).
Human fibronectin (manufactured by Sigma-Aldrich Co. LLC, F0895) was prepared at 1.25 μg/mL with phosphate buffered saline (PBS), dispensed at 100 μL/well to a 96-well plate, and left standing overnight. The plate was washed with Hanks' balanced salt solution (HBSS), then subjected to blocking treatment with Dulbecco's modified Eagle medium (DMEM) containing 1% bovine serum-derived albumin (BSA) (FUJIFILM Wako Pure Chemical Corp., for cell culture, 017-22231), and used as a coated plate in the adhesion test.
αv-transfected cells (CHO cells deficient in α5 gene and transfected with αv gene) cultured in Ham's F-12 medium (FUJIFILM Wako Pure Chemical Corp., 087-08335) containing 10% fetal bovine serum (FBS), 1% penicillin/streptomycin/amphotericin B (manufactured by Thermo Fisher Scientific, Inc., 15240), 1 mM GlutaMAX Supplement (manufactured by Thermo Fisher Scientific, Inc., 35050), and 400 μg/mL hygromycin B (FUJIFILM Wako Pure Chemical Corp., 080-07683) were recovered and suspended in DMEM containing 1 mM MnCl2 (manufactured by Sigma-Aldrich Co. LLC, M1787) to prepare a cell suspension. A test compound dissolved in DMSO was added thereto.
The cell suspension of 1×10^6 cells/mL containing the test compound was added at 100 μL/well to the coated plate and left standing for 1 hour in a 5% CO2 incubator (37° C.). One hour later, the supernatant was removed, and the plate was washed with HBSS. The cells that adhered to each well in the plate were stained with crystal violet, and the cells were lysed, followed by absorbance measurement. Inhibition without substrate coating was defined as 100% inhibition, and inhibition when DMSO was added instead of the test compound was defined as 0% inhibition. The rate of inhibition of cell adhesion by the test compound was calculated according to the following expression.
Rate of inhibition of cell adhesion (%)=[1−{(Absorbance in the case of adding the test compound)−(Absorbance without substrate coating)}/{(Absorbance in the case of adding DMSO)−(Absorbance without substrate coating)}]×100
An IC50 value was calculated from the rate of inhibition of cell adhesion by the test compound. A: IC50<3 nM, B: 3 nM≤IC50<10 nM, C: 10 nM≤IC50<30 nM, D: 30 nM≤IC50<100 nM, or E: IC50≥100 nM.

[1] = test system: Human hepatic stellate cells; experiment: Active human hepatic stellate cell dedifferentiation test (decrease in ACTA2 mRNA expression); assay type: cell-based; conditions: 3 days differentiation then 2 days with compound, read-out: IC50 (rate of decrease in ACTA2 mRNA expression)
Protocol: Human hepatic stellate cells (manufactured by ScienCell Research Laboratories, Inc., 5300) were suspended in DMEM containing 10% FBS and […] penicillin/streptomycin/amphotericin B to prepare a cell suspension of 0.5×10^5 cells/mL, which was regarded as cells at the start of differentiation. The cells at the start of differentiation were dispensed at 1 mL/well to a 12-well plate and cultured, for differentiation, for 3 days in a 5% CO2 incubator (37° C.).
The culture solution in each well was removed, and DMEM containing 10% FBS and 1% penicillin/streptomycin/amphotericin B supplemented with a test compound dissolved in DMSO (final DMSO concentration: 0.1%) was added at 1 mL/well. The resultant was further cultured for 2 days in a 5% CO2 incubator (37° C.). In Test Example 4, the same reagents as in Test Example 1 were used unless otherwise specified.
RNA in the cultured cells was extracted using NucleoSpin® RNA (manufactured by Takara Bio Inc., U0955C), and cDNA was further synthesized from the extracted RNA using Prime Script™ RT reagent Kit with gDNA Eraser (manufactured by Takara Bio Inc., RR047A). Real time PCR was performed using the synthesized cDNA, various primers and TB Green® Premix Ex Taq™ II (manufactured by Takara Bio Inc., RR820A) and using PCR Thermal Cycler Dice Real Time (manufactured by Takara Bio Inc., System Code TP910, Model Code TP900). The primers used were actin alpha 2, smooth muscle (ACTA2) primer (manufactured by Takara Bio Inc., HA136273) and glyceraldehyde-3-phosphate dehydrogenase (GAPDH) primer (manufactured by Takara Bio Inc., HA067812).
The amplification curve of PCR was analyzed by the comparative Ct method. The expression level of ACTA2 mRNA was corrected with the expression level of GAPDH mRNA. An ACTA2 mRNA expression level when DMSO was added instead of the test compound was defined as 100%, and an ACTA2 mRNA expression level in the cells at the start of differentiation was defined as 0%. The rate of decrease in ACTA2 mRNA expression by the test compound was calculated according to the following expression.
Rate of decrease in ACTA2 mRNA expression (%)=[1−{(ACTA2 mRNA expression level in the case of adding the test compound)−(ACTA2 mRNA expression level in the cells at the start of differentiation)}/{(ACTA2 mRNA expression level in the case of adding DMSO)−(ACTA2 mRNA expression level in the cells at the start of differentiation)}]×100
An IC50 value was calculated from the rate of decrease in ACTA2 mRNA expression by the test compound. A: IC50<10 nM, B: 10 nM≤IC50<50 nM, C: 50 nM≤IC50<100 nM, or D: IC50≥100 nM.

T1 sequence (P06756 31-889 limits assumed): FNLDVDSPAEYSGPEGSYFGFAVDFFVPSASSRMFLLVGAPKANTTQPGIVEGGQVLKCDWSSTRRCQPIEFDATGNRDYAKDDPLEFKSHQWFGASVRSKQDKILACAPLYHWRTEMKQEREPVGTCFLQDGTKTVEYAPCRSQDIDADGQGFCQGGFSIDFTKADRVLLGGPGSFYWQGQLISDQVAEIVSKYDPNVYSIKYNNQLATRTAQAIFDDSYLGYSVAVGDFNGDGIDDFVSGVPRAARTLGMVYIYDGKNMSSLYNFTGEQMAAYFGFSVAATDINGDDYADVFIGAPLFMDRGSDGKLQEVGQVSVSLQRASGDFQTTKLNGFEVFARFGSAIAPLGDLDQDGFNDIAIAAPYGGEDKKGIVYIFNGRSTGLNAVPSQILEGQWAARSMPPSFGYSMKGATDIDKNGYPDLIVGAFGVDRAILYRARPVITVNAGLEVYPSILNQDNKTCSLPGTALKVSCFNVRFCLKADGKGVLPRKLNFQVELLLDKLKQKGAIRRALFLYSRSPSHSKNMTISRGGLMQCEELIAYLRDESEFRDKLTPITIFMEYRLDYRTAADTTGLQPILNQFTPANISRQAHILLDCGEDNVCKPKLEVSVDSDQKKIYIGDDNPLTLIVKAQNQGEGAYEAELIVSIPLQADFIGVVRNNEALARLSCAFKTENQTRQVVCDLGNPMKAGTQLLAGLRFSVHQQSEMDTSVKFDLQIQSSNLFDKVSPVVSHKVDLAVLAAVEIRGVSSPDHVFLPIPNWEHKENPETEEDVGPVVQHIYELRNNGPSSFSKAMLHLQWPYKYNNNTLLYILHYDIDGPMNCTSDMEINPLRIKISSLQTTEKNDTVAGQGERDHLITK
T1 sequence (P06756 891-1048 limits assumed): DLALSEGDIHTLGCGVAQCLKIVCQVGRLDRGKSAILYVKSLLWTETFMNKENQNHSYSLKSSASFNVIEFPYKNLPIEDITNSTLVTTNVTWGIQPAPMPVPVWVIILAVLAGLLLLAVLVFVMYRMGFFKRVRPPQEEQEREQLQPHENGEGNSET
T1 sequence (G3HZ55 21-798): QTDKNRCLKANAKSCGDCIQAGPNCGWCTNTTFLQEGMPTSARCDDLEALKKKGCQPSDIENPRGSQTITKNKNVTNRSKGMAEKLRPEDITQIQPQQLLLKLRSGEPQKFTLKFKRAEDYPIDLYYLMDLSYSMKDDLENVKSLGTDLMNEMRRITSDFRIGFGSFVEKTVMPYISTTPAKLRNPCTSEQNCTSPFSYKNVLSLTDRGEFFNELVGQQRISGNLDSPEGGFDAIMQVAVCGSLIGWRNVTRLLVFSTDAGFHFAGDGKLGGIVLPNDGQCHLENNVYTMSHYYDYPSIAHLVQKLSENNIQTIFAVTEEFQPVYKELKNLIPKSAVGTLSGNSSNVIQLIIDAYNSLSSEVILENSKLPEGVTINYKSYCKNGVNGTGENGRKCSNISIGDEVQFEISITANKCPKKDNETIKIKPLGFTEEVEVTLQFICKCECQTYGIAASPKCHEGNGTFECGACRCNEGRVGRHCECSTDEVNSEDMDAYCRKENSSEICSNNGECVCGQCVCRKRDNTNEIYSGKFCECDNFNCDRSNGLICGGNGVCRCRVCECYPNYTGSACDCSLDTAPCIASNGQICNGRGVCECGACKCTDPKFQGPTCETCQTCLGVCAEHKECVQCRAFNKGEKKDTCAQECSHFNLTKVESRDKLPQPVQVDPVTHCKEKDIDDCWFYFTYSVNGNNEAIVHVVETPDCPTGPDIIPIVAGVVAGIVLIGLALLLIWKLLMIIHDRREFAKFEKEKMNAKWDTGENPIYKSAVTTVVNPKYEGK

Row | SMILES | pIC50 (αvβ1) | pIC50 [1]
1 | O=C(O)C[C@H](NC(=O)CNC(=O)c1cc(NC2=NCC(F)CN2)c2cn[nH]c2c1)c1cc(F)cc(C(F)(F)F)c1 (stereo partly drawn) [Example 6-(b), (3S)-3-(2-(4-((5-fluoro-1,4,5,6-tetrahydropyrimidin-2-yl)amino)-1H-indazole-6-carboxamido)acetamido)-3-(3-fluoro-5-(trifluoromethyl)phenyl)propanoic acid] | > 8.52 | 7.30 to 8.00
2 | O=C(O)C[C@H](NC(=O)CNC(=O)c1cc(NC2=NCC(F)CN2)c2cn[nH]c2c1)c1cc(C(F)(F)F)cc(C(F)(F)F)c1 (stereo partly drawn) [Example 7-(b), (3S)-3-(3,5-bis(trifluoromethyl)phenyl)-3-(2-(4-((5-fluoro-1,4,5,6-tetrahydropyrimidin-2-yl)amino)-1H-indazole-6-carboxamido)acetamido)propanoic acid] | > 8.52 | > 8.00
3 | O=C(O)C[C@H](NC(=O)CNC(=O)c1cc(NC2=NCC(F)CN2)c2cn[nH]c2c1)c1cc(-n2cccn2)cc(C(F)(F)F)c1 (stereo partly drawn) [Example 8-(b), (3S)-3-(3-(1H-pyrazol-1-yl)-5-(trifluoromethyl)phenyl)-3-(2-(4-((5-fluoro-1,4,5,6-tetrahydropyrimidin-2-yl)amino)-1H-indazole-6-carboxamido)acetamido)propanoic acid] | > 8.52 | 7.00 to 7.30
4 | O=C(O)C[C@H](NC(=O)CNC(=O)c1cc(NC2=NCC(F)CN2)c2cn[nH]c2c1)c1cccc(C(F)(F)F)c1F (stereo partly drawn) [Example 9-(b), (3S)-3-(2-(4-((5-fluoro-1,4,5,6-tetrahydropyrimidin-2-yl)amino)-1H-indazole-6-carboxamido)acetamido)-3-(2-fluoro-3-(trifluoromethyl)phenyl)propanoic acid] | 8.00 to 8.52 | 7.30 to 8.00
5 | O=C(O)C[C@H](NC(=O)CNC(=O)c1cc(NC2=NCC(F)CN2)c2cn[nH]c2c1)c1cccc(C(F)(F)F)c1Cl (stereo partly drawn) [Example 10-(b), (3S)-3-(2-chloro-3-(trifluoromethyl)phenyl)-3-(2-(4-((5-fluoro-1,4,5,6-tetrahydropyrimidin-2-yl)amino)-1H-indazole-6-carboxamido)acetamido)propanoic acid] | ≤ 7.00 | ≤ 7.00
6 | O=C(O)C[C@H](NC(=O)CNC(=O)c1cc(NC2=NCC(F)CN2)c2cn[nH]c2c1)c1cc(C(F)(F)F)ccc1F (stereo partly drawn) [Example 11-(b), (3S)-3-(2-(4-((5-fluoro-1,4,5,6-tetrahydropyrimidin-2-yl)amino)-1H-indazole-6-carboxamido)acetamido)-3-(2-fluoro-5-(trifluoromethyl)phenyl)propanoic acid] | 8.00 to 8.52 | > 8.00
7 | O=C(O)C[C@H](NC(=O)CNC(=O)c1cc(NC2=NCC(F)CN2)c2cn[nH]c2c1)c1cc(C(F)(F)F)ccc1Cl (stereo partly drawn) [Example 12-(b), (3S)-3-(2-chloro-5-(trifluoromethyl)phenyl)-3-(2-(4-((5-fluoro-1,4,5,6-tetrahydropyrimidin-2-yl)amino)-1H-indazole-6-carboxamido)acetamido)propanoic acid] | 8.00 to 8.52 | 7.30 to 8.00
8 | O=C(O)C[C@H](NC(=O)CNC(=O)c1cc(NC2=NCC(F)CN2)c2cn[nH]c2c1)c1ccc(F)c(C(F)(F)F)c1 (stereo partly drawn) [Example 13-(b), (3S)-3-(2-(4-((5-fluoro-1,4,5,6-tetrahydropyrimidin-2-yl)amino)-1H-indazole-6-carboxamido)acetamido)-3-(4-fluoro-3-(trifluoromethyl)phenyl)propanoic acid] | > 8.52 | 7.30 to 8.00
9 | Cc1ccc([C@H](CC(=O)O)NC(=O)CNC(=O)c2cc(NC3=NCC(F)CN3)c3cn[nH]c3c2)cc1C(F)(F)F (stereo partly drawn) [Example 14-(b), (3S)-3-(2-(4-((5-fluoro-1,4,5,6-tetrahydropyrimidin-2-yl)amino)-1H-indazole-6-carboxamido)acetamido)-3-(4-methyl-3-(trifluoromethyl)phenyl)propanoic acid] | > 8.52 | > 8.00
10 | O=C(O)C[C@H](NC(=O)CNC(=O)c1cc(NC2=NCC(F)CN2)c2cn[nH]c2c1)c1cc(Cl)c(F)c(C(F)(F)F)c1 (stereo partly drawn) [Example 15-(b), (3S)-3-(3-chloro-4-fluoro-5-(trifluoromethyl)phenyl)-3-(2-(4-((5-fluoro-1,4,5,6-tetrahydropyrimidin-2-yl)amino)-1H-indazole-6-carboxamido)acetamido)propanoic acid] | > 8.52 | > 8.00
11 | COc1ccc([C@H](CC(=O)O)NC(=O)CNC(=O)c2cc(NC3=NCC(F)CN3)c3cn[nH]c3c2)cc1Br (stereo partly drawn) [Example 16-(b), (3S)-3-(3-bromo-4-methoxyphenyl)-3-(2-(4-((5-fluoro-1,4,5,6-tetrahydropyrimidin-2-yl)amino)-1H-indazole-6-carboxamido)acetamido)propanoic acid] | > 8.52 | > 8.00
12 | O=C(O)C[C@H](NC(=O)CNC(=O)c1cc(NC2=NCC(F)CN2)c2cn[nH]c2c1)c1cc(Cl)cc(Cl)c1 (stereo partly drawn) [Example 17-(b), (3S)-3-(3,5-dichlorophenyl)-3-(2-(4-((5-fluoro-1,4,5,6-tetrahydropyrimidin-2-yl)amino)-1H-indazole-6-carboxamido)acetamido)propanoic acid] | > 8.52 | 7.30 to 8.00
13 | O=C(O)C[C@H](NC(=O)CNC(=O)c1cc(NC2=NCC(F)CN2)c2cn[nH]c2c1)c1cc(Cl)cc(Br)c1 (stereo partly drawn) [Example 18-(b), (3S)-3-(3-bromo-5-chlorophenyl)-3-(2-(4-((5-fluoro-1,4,5,6-tetrahydropyrimidin-2-yl)amino)-1H-indazole-6-carboxamido)acetamido)propanoic acid] | > 8.52 | > 8.00
14 | O=C(O)C[C@H](NC(=O)CNC(=O)c1cc(NC2=NCC(F)CN2)c2cn[nH]c2c1)c1cc(Br)cc(Br)c1 (stereo partly drawn) [Example 19-(b), (3S)-3-(3,5-dibromophenyl)-3-(2-(4-((5-fluoro-1,4,5,6-tetrahydropyrimidin-2-yl)amino)-1H-indazole-6-carboxamido)acetamido)propanoic acid] | > 8.52 | > 8.00
15 | O=C(O)C[C@H](NC(=O)CNC(=O)c1cc(NC2=NCC(F)CN2)c2cn[nH]c2c1)c1cc(Br)cc(I)c1 (stereo partly drawn) [Example 20-(b), (3S)-3-(3-bromo-5-iodophenyl)-3-(2-(4-((5-fluoro-1,4,5,6-tetrahydropyrimidin-2-yl)amino)-1H-indazole-6-carboxamido)acetamido)propanoic acid] | > 8.52 | > 8.00

Reference: patent US20230192661A1, “1, 4, 5, 6-TETRAHYDROPYRIMIDINE-2-AMINE DERIVATIVE” (UBE Corporation, priority 2020, published 2023)
